Results from BigSolDB 2.1.

Q: For O=C(NC[C@H]1CN(c2ccc(N3CCOCC3=O)cc2)C(=O)O1)c1ccc(Cl)s1, which solubility (mole fraction) (in 1,4-dioxane, 288.15 K) is on record?
A: Its solubility (mole fraction) is 0.000132.

Q: What about the solubility (mole fraction) (in 1,4-dioxane, 293.15 K) of the same compound?
A: The solubility (mole fraction) was 0.000158.

Q: What about the solubility (mole fraction) (in 1,4-dioxane, 298.15 K) of the same compound?
A: The solubility (mole fraction) was 0.000189.

Q: What about the solubility (mole fraction) (in 1,4-dioxane, 303.15 K) of the same compound?
A: The solubility (mole fraction) was 0.000224.

Q: And the solubility (mole fraction) (in 1,4-dioxane, 308.15 K)?
A: The solubility (mole fraction) was 0.000265.

Q: And the solubility (mole fraction) (in 1,4-dioxane, 313.15 K)?
A: Its solubility (mole fraction) is 0.000311.

Q: What about the solubility (mole fraction) (in 1,4-dioxane, 318.15 K) of the same compound?
A: Its solubility (mole fraction) is 0.000363.

Q: What about the solubility (mole fraction) (in 1,4-dioxane, 323.15 K) of the same compound?
A: Its solubility (mole fraction) is 0.000422.

Q: And the solubility (mole fraction) (in 1,4-dioxane, 328.15 K)?
A: The solubility (mole fraction) was 0.000488.

Q: And the solubility (mole fraction) (in 1,4-dioxane, 333.15 K)?
A: Its solubility (mole fraction) is 0.000562.

Q: And the solubility (mole fraction) (in 2-butanone, 273.15 K)?
A: Its solubility (mole fraction) is 3.47e-05.

Q: And the solubility (mole fraction) (in 2-butanone, 278.15 K)?
A: Its solubility (mole fraction) is 4.55e-05.

Q: And the solubility (mole fraction) (in 2-butanone, 283.15 K)?
A: The solubility (mole fraction) was 5.9e-05.

Q: And the solubility (mole fraction) (in 2-butanone, 288.15 K)?
A: Its solubility (mole fraction) is 7.59e-05.

Q: What about the solubility (mole fraction) (in 2-butanone, 293.15 K) of the same compound?
A: Its solubility (mole fraction) is 9.67e-05.

Q: What about the solubility (mole fraction) (in 2-butanone, 298.15 K) of the same compound?
A: Its solubility (mole fraction) is 0.000122.

Q: What about the solubility (mole fraction) (in 2-butanone, 303.15 K) of the same compound?
A: Its solubility (mole fraction) is 0.000153.

Q: What about the solubility (mole fraction) (in 2-butanone, 308.15 K) of the same compound?
A: The solubility (mole fraction) was 0.000191.

Q: What about the solubility (mole fraction) (in 2-butanone, 313.15 K) of the same compound?
A: Its solubility (mole fraction) is 0.000236.

Q: And the solubility (mole fraction) (in 2-butanone, 318.15 K)?
A: The solubility (mole fraction) was 0.00029.

Q: And the solubility (mole fraction) (in 2-hexanone, 273.15 K)?
A: The solubility (mole fraction) was 1.78e-05.

Q: And the solubility (mole fraction) (in 2-hexanone, 278.15 K)?
A: The solubility (mole fraction) was 2.24e-05.

Q: And the solubility (mole fraction) (in 2-hexanone, 283.15 K)?
A: Its solubility (mole fraction) is 2.79e-05.

Q: What about the solubility (mole fraction) (in 2-hexanone, 288.15 K) of the same compound?
A: The solubility (mole fraction) was 3.45e-05.

Q: What about the solubility (mole fraction) (in 2-hexanone, 293.15 K) of the same compound?
A: Its solubility (mole fraction) is 4.24e-05.

Q: What about the solubility (mole fraction) (in 2-hexanone, 298.15 K) of the same compound?
A: Its solubility (mole fraction) is 5.17e-05.

Q: And the solubility (mole fraction) (in 2-hexanone, 303.15 K)?
A: The solubility (mole fraction) was 6.27e-05.

Q: What about the solubility (mole fraction) (in 2-hexanone, 308.15 K) of the same compound?
A: Its solubility (mole fraction) is 7.54e-05.

Q: And the solubility (mole fraction) (in 2-hexanone, 313.15 K)?
A: Its solubility (mole fraction) is 9.03e-05.

Q: And the solubility (mole fraction) (in 2-hexanone, 318.15 K)?
A: The solubility (mole fraction) was 0.000107.

Q: What about the solubility (mole fraction) (in 3-pentanone, 273.15 K) of the same compound?
A: Its solubility (mole fraction) is 2.43e-05.

Q: And the solubility (mole fraction) (in 3-pentanone, 278.15 K)?
A: Its solubility (mole fraction) is 3.11e-05.

Q: And the solubility (mole fraction) (in 3-pentanone, 283.15 K)?
A: Its solubility (mole fraction) is 3.94e-05.

Q: What about the solubility (mole fraction) (in 3-pentanone, 288.15 K) of the same compound?
A: The solubility (mole fraction) was 4.95e-05.

Q: What about the solubility (mole fraction) (in 3-pentanone, 293.15 K) of the same compound?
A: The solubility (mole fraction) was 6.17e-05.

Q: And the solubility (mole fraction) (in 3-pentanone, 298.15 K)?
A: The solubility (mole fraction) was 7.64e-05.

Q: And the solubility (mole fraction) (in 3-pentanone, 303.15 K)?
A: Its solubility (mole fraction) is 9.39e-05.

Q: What about the solubility (mole fraction) (in 3-pentanone, 308.15 K) of the same compound?
A: The solubility (mole fraction) was 0.000115.

Q: What about the solubility (mole fraction) (in 3-pentanone, 313.15 K) of the same compound?
A: Its solubility (mole fraction) is 0.000139.

Q: And the solubility (mole fraction) (in 3-pentanone, 318.15 K)?
A: The solubility (mole fraction) was 0.000168.

Q: What about the solubility (mole fraction) (in acetone, 273.15 K) of the same compound?
A: The solubility (mole fraction) was 4.06e-05.

Q: What about the solubility (mole fraction) (in acetone, 278.15 K) of the same compound?
A: Its solubility (mole fraction) is 5.29e-05.

Q: And the solubility (mole fraction) (in acetone, 283.15 K)?
A: Its solubility (mole fraction) is 6.83e-05.

Q: And the solubility (mole fraction) (in acetone, 288.15 K)?
A: The solubility (mole fraction) was 8.74e-05.

Q: What about the solubility (mole fraction) (in acetone, 293.15 K) of the same compound?
A: Its solubility (mole fraction) is 0.000111.

Q: And the solubility (mole fraction) (in acetone, 298.15 K)?
A: The solubility (mole fraction) was 0.00014.

Q: What about the solubility (mole fraction) (in acetone, 303.15 K) of the same compound?
A: Its solubility (mole fraction) is 0.000175.

Q: What about the solubility (mole fraction) (in acetone, 308.15 K) of the same compound?
A: The solubility (mole fraction) was 0.000216.

Q: What about the solubility (mole fraction) (in acetone, 313.15 K) of the same compound?
A: The solubility (mole fraction) was 0.000267.

Q: And the solubility (mole fraction) (in acetone, 318.15 K)?
A: The solubility (mole fraction) was 0.000326.

Q: And the solubility (mole fraction) (in acetonitrile, 273.15 K)?
A: Its solubility (mole fraction) is 4.82e-05.

Q: What about the solubility (mole fraction) (in acetonitrile, 278.15 K) of the same compound?
A: The solubility (mole fraction) was 6.11e-05.

Q: And the solubility (mole fraction) (in acetonitrile, 283.15 K)?
A: The solubility (mole fraction) was 7.68e-05.

Q: What about the solubility (mole fraction) (in acetonitrile, 288.15 K) of the same compound?
A: The solubility (mole fraction) was 9.58e-05.

Q: What about the solubility (mole fraction) (in acetonitrile, 293.15 K) of the same compound?
A: Its solubility (mole fraction) is 0.000119.

Q: And the solubility (mole fraction) (in acetonitrile, 298.15 K)?
A: Its solubility (mole fraction) is 0.000146.

Q: And the solubility (mole fraction) (in acetonitrile, 303.15 K)?
A: Its solubility (mole fraction) is 0.000178.

Q: And the solubility (mole fraction) (in acetonitrile, 308.15 K)?
A: The solubility (mole fraction) was 0.000216.

Q: And the solubility (mole fraction) (in acetonitrile, 313.15 K)?
A: The solubility (mole fraction) was 0.00026.

Q: What about the solubility (mole fraction) (in acetonitrile, 318.15 K) of the same compound?
A: The solubility (mole fraction) was 0.000312.

Q: What about the solubility (mole fraction) (in methyl acetate, 273.15 K) of the same compound?
A: Its solubility (mole fraction) is 3.2e-05.

Q: What about the solubility (mole fraction) (in methyl acetate, 278.15 K) of the same compound?
A: Its solubility (mole fraction) is 4.05e-05.

Q: What about the solubility (mole fraction) (in methyl acetate, 283.15 K) of the same compound?
A: The solubility (mole fraction) was 5.07e-05.

Q: What about the solubility (mole fraction) (in methyl acetate, 288.15 K) of the same compound?
A: Its solubility (mole fraction) is 6.31e-05.

Q: And the solubility (mole fraction) (in methyl acetate, 293.15 K)?
A: Its solubility (mole fraction) is 7.79e-05.

Q: What about the solubility (mole fraction) (in methyl acetate, 298.15 K) of the same compound?
A: The solubility (mole fraction) was 9.54e-05.

Q: And the solubility (mole fraction) (in methyl acetate, 303.15 K)?
A: The solubility (mole fraction) was 0.000116.

Q: And the solubility (mole fraction) (in methyl acetate, 308.15 K)?
A: The solubility (mole fraction) was 0.000141.

Q: And the solubility (mole fraction) (in methyl acetate, 313.15 K)?
A: Its solubility (mole fraction) is 0.000169.

Q: And the solubility (mole fraction) (in methyl acetate, 318.15 K)?
A: Its solubility (mole fraction) is 0.000202.
